Source: article PMC9737972, “Dual LSD1 and HDAC6 Inhibition Induces Doxorubicin Sensitivity in Acute Myeloid Leukemia Cells” (Cancers, 2022)
Where two headings read alike, the source gives them in different places.

Columns and labels:
[1] = test system: K-562; experiment: Cell Titer-Glo cell viability, K-562; type: cell-based; settings: Homo sapiens, read-out: IC50 cell viability K-562
[2] = molecular target: T1, C-terminal His-tag-HDAC8 (Homo sapiens, UniProt Q9BY41); experiment: HDAC-Glo I/II enzyme assay, HDAC8; type: biochemical; settings: ± standard error, three independent measurements
T1 construct: His (C); purchased BPS Bioscience 50008
T1 sequence (Q9BY41 1-377): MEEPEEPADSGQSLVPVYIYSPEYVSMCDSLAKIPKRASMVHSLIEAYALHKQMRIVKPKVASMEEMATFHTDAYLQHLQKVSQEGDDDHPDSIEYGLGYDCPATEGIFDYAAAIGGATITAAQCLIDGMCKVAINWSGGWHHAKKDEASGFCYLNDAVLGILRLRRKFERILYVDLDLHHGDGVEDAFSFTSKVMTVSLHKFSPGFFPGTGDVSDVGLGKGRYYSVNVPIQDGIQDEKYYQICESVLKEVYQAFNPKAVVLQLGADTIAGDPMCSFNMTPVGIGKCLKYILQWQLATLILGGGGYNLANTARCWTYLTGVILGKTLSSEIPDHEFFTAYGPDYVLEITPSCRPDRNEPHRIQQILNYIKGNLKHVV

[3] = test system: LSD2; settings: cited from earlier work
[4] = molecular target: T2, N-ter-GST-HDAC-6 (Homo sapiens, UniProt Q9UBN7); experiment: HDAC-Glo I/II enzyme assay, HDAC6; type: biochemical; settings: ± standard error, three independent measurements
T2 construct: GST (N); purchased BPS Bioscience 50006
T2 sequence (Q9UBN7 1-1215): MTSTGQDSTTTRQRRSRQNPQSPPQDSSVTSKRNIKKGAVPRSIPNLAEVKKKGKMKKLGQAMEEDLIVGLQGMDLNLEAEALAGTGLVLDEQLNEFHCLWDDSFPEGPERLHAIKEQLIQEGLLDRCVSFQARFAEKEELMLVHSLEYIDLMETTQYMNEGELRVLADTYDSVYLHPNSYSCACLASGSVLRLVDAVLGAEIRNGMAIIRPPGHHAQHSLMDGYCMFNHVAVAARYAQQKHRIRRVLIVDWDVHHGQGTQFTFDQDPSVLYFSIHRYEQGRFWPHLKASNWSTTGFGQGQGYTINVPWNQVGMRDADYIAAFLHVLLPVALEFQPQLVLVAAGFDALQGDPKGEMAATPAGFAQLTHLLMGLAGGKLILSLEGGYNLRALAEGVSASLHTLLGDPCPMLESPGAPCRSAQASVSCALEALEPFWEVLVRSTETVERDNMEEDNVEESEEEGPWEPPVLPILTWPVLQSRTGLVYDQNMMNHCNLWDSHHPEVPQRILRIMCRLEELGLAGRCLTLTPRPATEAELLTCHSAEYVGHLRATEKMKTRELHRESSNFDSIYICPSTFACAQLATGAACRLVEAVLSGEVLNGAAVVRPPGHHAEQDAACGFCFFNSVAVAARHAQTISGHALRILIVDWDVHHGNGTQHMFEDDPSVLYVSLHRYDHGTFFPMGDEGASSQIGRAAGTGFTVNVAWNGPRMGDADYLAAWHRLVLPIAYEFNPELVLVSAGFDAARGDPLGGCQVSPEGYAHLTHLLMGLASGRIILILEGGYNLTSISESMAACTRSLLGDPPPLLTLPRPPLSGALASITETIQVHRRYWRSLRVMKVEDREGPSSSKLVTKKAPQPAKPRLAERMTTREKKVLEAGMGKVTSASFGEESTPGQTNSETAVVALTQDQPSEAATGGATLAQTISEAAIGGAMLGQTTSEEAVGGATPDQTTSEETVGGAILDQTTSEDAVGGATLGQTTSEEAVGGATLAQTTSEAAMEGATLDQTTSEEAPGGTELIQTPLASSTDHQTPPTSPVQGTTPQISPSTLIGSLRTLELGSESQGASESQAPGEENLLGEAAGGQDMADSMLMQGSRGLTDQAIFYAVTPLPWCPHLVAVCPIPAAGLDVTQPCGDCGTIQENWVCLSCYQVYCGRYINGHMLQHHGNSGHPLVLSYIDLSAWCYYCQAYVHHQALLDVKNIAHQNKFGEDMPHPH

[5] = cited from earlier work
[6] = test system: MOLM-13; experiment: Combination treatment with doxorubicin, MOLM-13 cell viability; type: cell-based; settings: iDual 0.5 μM, iHDAC6 0.5 μM, GSK2879552 1.25 μM, ricolinostat […], 72 h then + doxorubicin 2 nM 48 h
[7] = molecular target: T3, LSD1 (Homo sapiens, UniProt O60341); experiment: LSD1 MALDI-TOF enzyme assay; type: biochemical; parameters: made in house; settings: ± standard error, three independent measurements
[8] = molecular target: T4, Human recombinant C-ter-His-FLAG-HDAC1 (Homo sapiens, UniProt Q13547); experiment: HDAC-Glo I/II enzyme assay, HDAC1; type: biochemical; settings: ± standard error, three independent measurements
T4 construct: His (C); FLAG (C); purchased BPS Bioscience 50051
T4 sequence (Q13547 whole entry): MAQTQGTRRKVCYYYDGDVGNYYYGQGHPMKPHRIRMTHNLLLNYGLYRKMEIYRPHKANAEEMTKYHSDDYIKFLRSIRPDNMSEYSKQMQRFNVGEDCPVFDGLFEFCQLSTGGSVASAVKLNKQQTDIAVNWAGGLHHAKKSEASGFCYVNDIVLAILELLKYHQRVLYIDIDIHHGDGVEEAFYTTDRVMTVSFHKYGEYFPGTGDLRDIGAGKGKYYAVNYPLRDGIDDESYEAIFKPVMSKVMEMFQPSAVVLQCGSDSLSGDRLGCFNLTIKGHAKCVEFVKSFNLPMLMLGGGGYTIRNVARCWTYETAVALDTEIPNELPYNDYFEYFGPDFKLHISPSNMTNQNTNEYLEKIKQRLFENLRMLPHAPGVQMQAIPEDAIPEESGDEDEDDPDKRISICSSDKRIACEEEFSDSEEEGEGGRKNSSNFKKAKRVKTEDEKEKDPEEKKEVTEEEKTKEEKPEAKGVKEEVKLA

[9] = molecular target: T3, LSD1; experiment: Cellular thermal shift assay (CETSA), LSD1; type: cell-based; parameters: endogenous in cells; host or cells: THP-1; settings: THP-1 cells, 1 h; 4 μM (methods, Figure 2), Figure S14 legend 500 nM
Procedure: (§1) THP-1 cells, 1 × 10^7 cells at a density of 1 × 10^6 cells/mL, were treated with 4 μM of test compounds (1 h, 37 °C, 5% CO2). Cells were centrifuged, and the pellet was resuspended with 1 × Phosphate Buffer Saline (Gibco, Grand Island, NY, USA, #10010023) containing 1 × Protease Inhibitor Cocktail (Cell Signaling Technology, Beverly, MA, USA, #5871) and 1 mM phenylmethylsulfonyl fluoride (PMSF, Sigma Aldrich, St. Louis, MO, USA, #10837091001). The suspension volume was divided equally and heated for 3 min at 43–64 °C in a T100 Thermal Cycler (Bio-rad, Hercules, CA, USA). For protein extraction, cells were snap-frozen using liquid nitrogen, thawed twice (25 °C, 1 min), then centrifuged (20,000× g, 15 min, 4 °C). Following centrifugation, protein containing supernatants were denatured at 70 °C for 10 min and loaded on SDS-PAGE gels (Bio-Rad, Hercules, CA, USA, 161-0317). After electrophoresis (100 V and 60 min), proteins were transferred onto PVDF membrane (Bio-Rad #1620177) at 200 mA for 180 min and immunoblotted with primary antibodies (1:10,000 dilution for anti-LSD1 Antibody ab129195 [EPR6825], 1:1000 dilution for Anti-HDAC6 Antibody CST 7558, 1:1000 dilution for Anti-HDAC1 Antibody ab53091, 1:1000 dilution for Anti-HDAC8 Antibody ab187139, 1:5000 dilution for Anti-beta Actin Antibody ab8227) overnight at 4 °C. The next day, membranes were incubated with HRP-conjugated secondary antibodies (1:5000 dilution for Abcam, Cambridge, UK, ab205718) for 1 h at room temperature. The signal was detected with BIORAD Chemi-Doc XRS+ System and by using Immobilon Forte Western HRP Substrate (WBLUF0500).

[10] = test system: THP-1; experiment: Cell Titer-Glo cell viability, THP-1; type: cell-based; settings: Homo sapiens, read-out: IC50 cell viability THP-1
[11] = test system: LSD1 and HDAC substrates in THP-1 cells; experiment: Western blot of methylation and acetylation levels of LSD1 and HDAC substrates; type: cell-based; settings: for nuclear histone H3 acetylation (H3K18ac and H3K27ac levels), change vs DMSO: 24 h (ricolinostat 0.75 μM or 4 μM)
[12] = test system: MAOs; settings: cited from earlier work
[13] = test system: Jurkat; experiment: Cell Titer-Glo cell viability, Jurkat; type: cell-based; settings: Homo sapiens, 120 h, read-out: IC50 cell viability Jurkat
[14] = test system: MOLM-13; experiment: Cell Titer-Glo cell viability, MOLM-13; type: cell-based; settings: Homo sapiens, read-out: IC50 cell viability MOLM-13
[15] = molecular target: T5, HDAC-3/NcoR2 (Homo sapiens, UniProt O15379); experiment: HDAC-Glo I/II enzyme assay, HDAC3; type: biochemical; settings: ± standard error, three independent measurements
T5 construct: purchased BPS Bioscience 50003
T5 sequence (O15379 whole entry): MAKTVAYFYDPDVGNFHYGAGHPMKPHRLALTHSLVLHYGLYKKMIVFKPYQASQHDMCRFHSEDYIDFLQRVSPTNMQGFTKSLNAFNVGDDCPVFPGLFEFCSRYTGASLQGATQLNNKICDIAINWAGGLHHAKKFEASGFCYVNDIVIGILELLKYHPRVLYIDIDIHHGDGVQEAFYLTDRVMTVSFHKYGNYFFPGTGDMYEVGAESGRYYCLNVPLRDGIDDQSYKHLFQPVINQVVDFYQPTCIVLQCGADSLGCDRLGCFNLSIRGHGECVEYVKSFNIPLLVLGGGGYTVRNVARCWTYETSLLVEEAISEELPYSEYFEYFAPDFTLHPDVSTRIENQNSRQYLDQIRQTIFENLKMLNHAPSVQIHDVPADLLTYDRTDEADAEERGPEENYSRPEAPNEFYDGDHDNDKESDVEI
T5 sequence (Q9Y618 395-489 partner limits assumed): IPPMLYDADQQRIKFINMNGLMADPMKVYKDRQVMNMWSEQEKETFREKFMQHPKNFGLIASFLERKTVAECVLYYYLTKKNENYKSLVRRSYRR

[16] = test system: THP-1 cells; experiment: Caspase 3/7 and 7-AAD staining (flow cytometry); settings: doxorubicin alone at sublethal concentration (62.5 nM, 48 h)
[17] = molecular target: T6, HDAC8 (Homo sapiens, UniProt Q9BY41); experiment: Cellular thermal shift assay (CETSA), HDAC8; type: cell-based; settings: THP-1 cells, 1 h; 4 μM (methods, Figure 2), Figure S14 legend 500 nM
T6 construct: endogenous in cells; host or cells: THP-1
T6 sequence (Q9BY41 1-377): T1 sequence (Q9BY41 1-377)
Procedure: (§2) THP-1 cells, 1 × 10^7 cells at a density of 1 × 10^6 cells/mL, were treated with 4 μM of test compounds (1 h, 37 °C, 5% CO2). Cells were centrifuged, and the pellet was resuspended with 1 × Phosphate Buffer Saline (Gibco, Grand Island, NY, USA, #10010023) containing 1 × Protease Inhibitor Cocktail (Cell Signaling Technology, Beverly, MA, USA, #5871) and 1 mM phenylmethylsulfonyl fluoride (PMSF, Sigma Aldrich, St. Louis, MO, USA, #10837091001). The suspension volume was divided equally and heated for 3 min at 43–64 °C in a T100 Thermal Cycler (Bio-rad, Hercules, CA, USA). For protein extraction, cells were snap-frozen using liquid nitrogen, thawed twice (25 °C, 1 min), then centrifuged (20,000× g, 15 min, 4 °C). Following centrifugation, protein containing supernatants were denatured at 70 °C for 10 min and loaded on SDS-PAGE gels (Bio-Rad, Hercules, CA, USA, 161-0317). […] The signal was detected with BIORAD Chemi-Doc XRS+ System and by using Immobilon Forte Western HRP Substrate (WBLUF0500).

[18] = molecular target: T7, HDAC6 (Homo sapiens, UniProt Q9UBN7); experiment: Cellular thermal shift assay (CETSA), HDAC6; type: cell-based; settings: THP-1 cells, 1 h; 4 μM (methods, Figure 2), Figure S14 legend 500 nM
T7 construct: endogenous in cells; host or cells: THP-1
T7 sequence (Q9UBN7 1-1215): T2 sequence (Q9UBN7 1-1215)
Procedure: as §1

[19] = molecular target: T8, HDAC1 (Homo sapiens, UniProt Q13547); experiment: Cellular thermal shift assay (CETSA), HDAC1; type: cell-based; settings: THP-1 cells, 1 h; 4 μM (methods), Figure S14 legend 500 nM
T8 construct: endogenous in cells; host or cells: THP-1
T8 sequence (Q13547 whole entry): as the sequence (Q13547 whole entry) above
Procedure: as §2

[20] = molecular target: T7, HDAC6; parameters: method as in PMID 22262760; settings: cited from earlier work
[21] = K562, 120 h, ± standard deviation, three biological repeats
[22] = THP-1, 120 h, ± standard deviation, three biological repeats
[23] = ± standard deviation, three biological repeats
[24] = MOLM-13, 120 h, ± standard deviation, three biological repeats

IC50 [1, 21] [µM]	IC50 [2] [µM]	IC50 [4] [µM]	IC50 [7] [µM]	IC50 [8] [µM]	thermal stabilization of LSD1 (CETSA) [9]	IC50 [10, 22] [µM]	IC50 [13, 23] [µM]	IC50 [14, 24] [µM]	IC50 [15] [µM]	SMILES	cell viability after priming with compound and co-treatment with doxorubicin 2 nM [6]	nuclear histone H3 acetylation (H3K18ac and H3K27ac levels), change vs DMSO ([11]; 4 μM)	thermal stabilization of HDAC6 (CETSA) [18]	thermal stabilization of HDAC1 (CETSA) [19]	other results
> 20	> 100	> 100	1.54 ± 0.41	> 100	stabilizing LSD1 only	> 20	> 20	15 ± 3.5	> 100	O=C(O)c1ccc(CN2CCC(CN[C@@H]3C[C@H]3c3ccccc3)CC2)cc1 [GSK2879552, reference compound]	relatively ineffective	did not significantly alter	–	–	inhibition of LSD2 [3]: undetectable levels of inhibition; in vivo oral bioavailability [5]: favorable; levels of the histone substrate H3K4me2 ([11]; 4 μM, 24 h): increase; inhibition of MAOs [12]: undetectable levels of inhibition
–	–	–	–	–	–	–	–	–	–	COc1cccc2c1C(=O)c1c(O)c3c(c(O)c1C2=O)C[C@@](O)(C(=O)CO)C[C@@H]3O[C@H]1C[C@H](N)[C@H](O)[C@H](C)O1 [doxorubicin]	–	–	–	–	cells in the apoptosis/dead quadrant (caspase 3/7 staining), drug alone [16]: 30%
> 20	> 100	> 100	> 100	> 100	did not exhibit target engagement	> 20	> 20	> 20	> 100	O=C(O)c1ccc(CN2CCC(CNC3(c4ccccc4)CC3)CC2)cc1 [iNC]	–	–	did not exhibit target engagement	did not exhibit target engagement	thermal stabilization of HDAC8 (CETSA) [17]: did not exhibit target engagement
–	–	–	–	–	–	–	–	–	–	O=C(CCCCCCNC(=O)c1cnc(N(c2ccccc2)c2ccccc2)nc1)NO [ricolinostat, reference compound]	next in terms of activity	greater effect	stabilizing HDAC6	stabilized	IC50 ([1]; K562, 120 h): 2.6 ± 0.3 µM; HDAC6/HDAC1 isoform selectivity reported [20]: approximately 10 fold; IC50 ([10]; THP-1, 120 h): 2.9 ± 0.1 µM; acetylation levels of α-tubulin, fold increase vs DMSO ([11]; 4 μM, 24 h): 25 fold; acetylation levels of α-tubulin, fold increase vs DMSO ([11]; ~0.75 μM (similar fraction of IC50), 24 h): 20 fold; IC50 [13]: 1.9 ± 0.003 µM; IC50 ([14]; MOLM-13, 120 h): 0.2 ± 0.03 µM
